Results: publication PMC4642536, “Structural analysis of fungus-derived FAD glucose dehydrogenase” (Scientific Reports, 2015)

What was measured:
[1] = biological target: T1, AfGDH (Aspergillus flavus FAD-dependent glucose dehydrogenase, FADGDH) (Aspergillus flavus, UniProt B8MX95); experiment: PMS/DCIP reduction, absorbance at […] nm; FAD reduction spectrum; assay type: biochemical; settings: 200 mM D-glucose, 0.6 mM PMS, 0.06 mM DCIP, 10 mM potassium phosphate pH 6.5, 25 °C
T1 construct: gene F9C07_464; residues 24-593, secretion signal peptide (1-22) removed; codon-optimised synthetic gene in pET30C, E. coli Origami2 (DE3); nonglycosylated; monomer
T1 sequence (B8MX95 24-593): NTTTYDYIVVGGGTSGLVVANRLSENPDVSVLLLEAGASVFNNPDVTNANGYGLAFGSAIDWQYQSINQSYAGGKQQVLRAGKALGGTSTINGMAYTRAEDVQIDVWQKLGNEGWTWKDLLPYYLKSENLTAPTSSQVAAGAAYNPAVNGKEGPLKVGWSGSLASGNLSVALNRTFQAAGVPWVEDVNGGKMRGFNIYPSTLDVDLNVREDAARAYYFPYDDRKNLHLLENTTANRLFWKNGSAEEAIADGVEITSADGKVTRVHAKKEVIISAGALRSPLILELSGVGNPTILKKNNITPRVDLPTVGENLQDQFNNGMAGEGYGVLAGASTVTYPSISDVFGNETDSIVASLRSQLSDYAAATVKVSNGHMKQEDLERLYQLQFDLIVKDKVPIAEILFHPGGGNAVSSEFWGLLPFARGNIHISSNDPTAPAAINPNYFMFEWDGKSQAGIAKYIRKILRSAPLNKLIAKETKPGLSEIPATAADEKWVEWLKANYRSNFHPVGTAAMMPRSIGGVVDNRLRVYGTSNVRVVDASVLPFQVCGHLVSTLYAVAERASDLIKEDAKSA

[2] = biological target: T1, AfGDH (Aspergillus flavus FAD-dependent glucose dehydrogenase, FADGDH); experiment: X-ray crystal structure, […] Å; assay type: binding; settings: co-purified cofactor, refined as reduced form; pH 6.5; also in 4YNU

OC[C@H]1OC(O)[C@H](O)[C@@H](O)[C@@H]1O (stereo partly drawn) [D-glucose]
specific activity [1]: The addition of glucose to the wild type enzyme resulted in the disappearance of the peaks

Cc1cc2c(cc1C)N(C[C@H](O)[C@H](O)[C@H](O)COP(=O)(O)OP(=O)(O)OC[C@H]1O[C@@H](n3cnc4c(N)ncnc43)[C@H](O)[C@@H]1O)c1[nH]c(=O)[nH]c(=O)c1N2 [reduced FAD]
X-ray crystal structure, 1.78 Å [2]: The bound FAD molecule was refined as a reduced FAD cofactor (FADH2)
